Assay results taken from ChEMBL document CHEMBL2074513, “Role of blood-brain barrier P-glycoprotein in limiting brain accumulation and sedative side-effects of asimadoline, a peripherally acting analgaesic drug” (Br J Pharmacol, 1999).

Experiments:
[1] = target: ATP-dependent translocase ABCB1 (Homo sapiens, UniProt P08183); assay: TP_TRANSPORTER: transepithelial transport (basal to apical) in MDR1-expressing LLC-PK1 cells; type: functional, cell-based; conditions: pig
[2] = target: P-glycoprotein 1 and 3 (MDR1a/MDR1b) (Mus musculus, UniProt P21447+P06795); assay: TP_TRANSPORTER: increase in brain concentration in mdr1a/1b(-/-) mouse; type: functional, organism-based; conditions: in vivo
[3] = target: ATP-dependent translocase ABCB1 (Mus musculus, UniProt P21447); assay: TP_TRANSPORTER: transepithelial transport (basal to apical) in mdr1a-expressing LLC-PK1 cell; type: functional, cell-based; conditions: pig

Measured: Activity

Sequence of ATP-dependent translocase ABCB1 (Mus musculus, UniProt P21447) (P21447 whole entry): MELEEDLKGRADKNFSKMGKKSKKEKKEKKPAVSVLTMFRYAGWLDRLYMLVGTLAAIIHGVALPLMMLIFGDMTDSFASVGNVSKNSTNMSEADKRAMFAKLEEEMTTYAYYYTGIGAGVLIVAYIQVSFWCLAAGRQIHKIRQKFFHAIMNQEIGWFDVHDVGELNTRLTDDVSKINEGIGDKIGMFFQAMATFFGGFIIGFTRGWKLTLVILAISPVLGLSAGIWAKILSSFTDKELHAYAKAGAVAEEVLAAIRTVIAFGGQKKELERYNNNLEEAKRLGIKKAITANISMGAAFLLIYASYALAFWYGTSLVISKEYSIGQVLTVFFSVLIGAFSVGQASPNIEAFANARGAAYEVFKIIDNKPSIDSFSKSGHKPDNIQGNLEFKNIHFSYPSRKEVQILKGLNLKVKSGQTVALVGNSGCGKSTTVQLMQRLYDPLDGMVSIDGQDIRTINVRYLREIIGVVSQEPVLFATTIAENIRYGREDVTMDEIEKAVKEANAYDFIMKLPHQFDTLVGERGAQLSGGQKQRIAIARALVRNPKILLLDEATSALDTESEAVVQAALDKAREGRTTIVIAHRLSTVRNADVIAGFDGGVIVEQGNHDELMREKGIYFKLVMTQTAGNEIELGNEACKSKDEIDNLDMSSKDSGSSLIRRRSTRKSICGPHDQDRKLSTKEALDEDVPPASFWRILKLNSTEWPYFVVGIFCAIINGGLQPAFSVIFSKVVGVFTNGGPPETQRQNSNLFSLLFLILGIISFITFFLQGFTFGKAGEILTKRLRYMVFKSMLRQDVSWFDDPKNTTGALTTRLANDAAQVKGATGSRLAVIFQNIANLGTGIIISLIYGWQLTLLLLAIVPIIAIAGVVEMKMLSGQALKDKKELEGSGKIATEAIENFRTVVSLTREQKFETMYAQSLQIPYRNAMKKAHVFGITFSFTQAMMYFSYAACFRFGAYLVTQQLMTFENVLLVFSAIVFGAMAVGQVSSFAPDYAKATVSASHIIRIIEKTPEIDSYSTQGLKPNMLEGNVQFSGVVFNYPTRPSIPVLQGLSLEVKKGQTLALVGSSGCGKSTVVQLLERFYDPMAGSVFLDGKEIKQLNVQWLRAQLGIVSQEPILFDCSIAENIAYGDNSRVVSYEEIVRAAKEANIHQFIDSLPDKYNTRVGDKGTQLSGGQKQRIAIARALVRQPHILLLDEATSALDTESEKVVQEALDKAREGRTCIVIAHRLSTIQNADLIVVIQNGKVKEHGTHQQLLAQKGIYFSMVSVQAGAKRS
Sequence of ATP-dependent translocase ABCB1 (Homo sapiens, UniProt P08183) (P08183 whole entry): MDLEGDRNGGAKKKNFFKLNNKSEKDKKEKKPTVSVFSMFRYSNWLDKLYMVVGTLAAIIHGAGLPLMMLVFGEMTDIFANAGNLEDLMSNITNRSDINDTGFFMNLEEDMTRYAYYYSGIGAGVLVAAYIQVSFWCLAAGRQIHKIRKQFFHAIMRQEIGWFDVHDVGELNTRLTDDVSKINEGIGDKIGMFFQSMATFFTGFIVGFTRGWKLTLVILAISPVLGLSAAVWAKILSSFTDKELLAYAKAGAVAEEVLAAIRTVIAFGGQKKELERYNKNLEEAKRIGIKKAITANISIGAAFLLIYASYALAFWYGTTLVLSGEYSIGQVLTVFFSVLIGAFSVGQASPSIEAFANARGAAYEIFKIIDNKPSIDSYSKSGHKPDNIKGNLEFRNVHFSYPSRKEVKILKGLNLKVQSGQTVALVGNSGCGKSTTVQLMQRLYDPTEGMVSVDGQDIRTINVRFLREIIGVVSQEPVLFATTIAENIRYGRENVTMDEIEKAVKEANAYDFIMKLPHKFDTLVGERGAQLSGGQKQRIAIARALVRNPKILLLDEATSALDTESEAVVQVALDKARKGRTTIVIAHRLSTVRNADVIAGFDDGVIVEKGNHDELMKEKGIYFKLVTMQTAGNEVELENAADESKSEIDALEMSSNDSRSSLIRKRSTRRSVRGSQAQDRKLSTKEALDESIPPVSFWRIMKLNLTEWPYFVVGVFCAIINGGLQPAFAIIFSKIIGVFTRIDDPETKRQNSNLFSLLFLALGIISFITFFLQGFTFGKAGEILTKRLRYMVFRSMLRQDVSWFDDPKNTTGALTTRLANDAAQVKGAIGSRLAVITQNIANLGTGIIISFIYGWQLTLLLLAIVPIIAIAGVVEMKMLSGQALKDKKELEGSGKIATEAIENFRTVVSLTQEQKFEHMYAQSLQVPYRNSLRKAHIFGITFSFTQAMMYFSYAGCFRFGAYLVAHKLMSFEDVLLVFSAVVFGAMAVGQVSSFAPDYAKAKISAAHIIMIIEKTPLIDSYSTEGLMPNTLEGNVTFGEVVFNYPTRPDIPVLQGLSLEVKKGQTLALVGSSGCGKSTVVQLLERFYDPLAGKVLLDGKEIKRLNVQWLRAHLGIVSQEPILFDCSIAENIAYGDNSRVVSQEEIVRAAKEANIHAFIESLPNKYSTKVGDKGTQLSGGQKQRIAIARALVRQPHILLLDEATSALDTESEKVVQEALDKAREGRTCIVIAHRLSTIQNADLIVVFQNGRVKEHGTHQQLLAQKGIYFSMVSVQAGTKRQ

CN(C(=O)C(c1ccccc1)c1ccccc1)[C@H](CN1CC[C@H](O)C1)c1ccccc1 [ASIMADOLINE]
substrate [+]: [1] | [2] | [3]
